Test results reported in patent US20260097111A1, “ETHER LIPIDS FOR HYPERACTIVATION OF MAMMALIAN DENDRITIC CELLS” (priority 2022, published 2026).

Experiments:
[1] = DGP DP sizing (Malvern Mastersizer 3000); type: physicochemical
Protocol: DGP (Compound 2) DP Synthesis. DGP DP was synthesized at a 3 mL scale using the following procedure. […] Sterile 10×PBS was added to the solution resulting in a 1×PBS concentration and 4 mg/mL DGP DP concentration. The mixture was then stirred at 1000 rpm for another 30 min at RT. For DGP DP prepared at 12 or 18 mL scale, the same procedure was followed, with volumes, vials, and stir bars scaled up to achieve the 4 mg/mL DGP DP preparation.
In cases where DGP DS was micronized prior to use, DGP DS underwent jet milling using an M-50 (Microtech Engineering Company) to reduce DS size to an average of 3-5 μm. […] For in vitro studies, DGP DP samples were sonicated at 2 W (low energy) or 4 W (medium energy) over two 30 s intervals. For in vivo studies, DGP DP samples were sonicated at 3 W over two 30 s intervals as a mid-energy assessment.
DGP (Compound 2) DP Sizing. DGP DP size was determined using a Malvern Mastersizer 3000 with a Hydro SV attachment. Briefly, DGP DP was diluted to 1 mg/mL in water prior to sizing. The 1 mg/mL DGP DP was added drop-wise to a measurement chamber filled with water under spinning until laser obscuration was 3-5%. Five measurements were taken per sample, with the average of the measurements reported.

human moDC = experiment: Staining moDC for activation marker expression; type: cell-based
Protocol: Staining moDC for Activation Marker Expression. After treatment and supernatant collection, cells were resuspended in 200 μL/well PBS and transferred to 96-well V-bottom plates. To pellet cells and remove supernatant, plates were spun at 400×g for 4 min for this and subsequent steps. Cells were washed again with 200 μL/well PBS and pelleted. Live/dead Near-IR staining dye was diluted 1000-fold in PBS. […] Fc block was diluted 100-fold in FACS buffer, and 100 μL/well was added to cells. Cells were incubated with Fc block for 10 min at 4° C. During incubation primary CCR7 antibody (clone 2H4) was diluted 100-fold in FACS buffer. Cells were pelleted and primary CCR7 antibody was added at 100 μL/well. Cells were incubated at 37° C. for 30 min. Biotinylated rat anti-mouse IgM secondary was prepared by diluting 200-fold in FACS buffer. Cells were washed twice with FACS buffer before 100 μL/well secondary antibody was added. Cells were incubated at 4° C. for 20 min. Tertiary staining antibody cocktail was prepared in a mixture of FACS buffer and Brilliant Stain Buffer (1:1 volume ratio of each buffer). […], CD11c (PE-Cy7), CD209 (PE), CD40 (UV563), CD83 (UV737), CD86 (BV711), and HLA-DR (UV395) were all diluted 200-fold. HLA-ABC (BV605) was diluted 100-fold. […]
For flow cytometry analysis, fluorescence compensation was set up using compensation […]. […]

[2] = Serum chemokines and cytokines after SC injection; type: in vivo, mice; conditions: SC injection; 2, 24 and 48 hours post injection; FIG. 49
Protocol: Lipid Preparation. […] Lipids were used for chemical injections or DC treatment within one hour of their preparation.
Subcutaneous (SC) Injection. Mice were placed under Isoflurane for a few min for anesthesia. Tubes containing the chemicals were vortexed for 30 seconds, then loaded with a 1 mL Sub-Q syringe.
Blood Collection. Mice were placed under Isoflurane for approximately 10 min for anesthesia. Using a 21G needle, mice were gently poked through the skin to the submandibular space to induce bleeding. Five-Six drops were collected in a mini collect K2EDTA blood collection tube. Blood samples were transported back to Corner Therapeutics lab on ice. The blood was then centrifuged at 1500×g for 5 min. After centrifugation, blood was collected into a 96-well round bottom plate and stored at −80° C.
Measurement of Serum Chemokines and Cytokines. Secreted cytokines were measured in the supernatant by cytokine bead array using the LEGENDplex™ Mouse Murine Proinflammatory Chemokine, Murine Cytokine Release Syndrome Legendplex and LEGENDplex™ Mouse Cytokine Panel 2 (Biolegend) according to the manufacturer's protocol. Data were collected using a Quanteon Novocyte flow cytometer and analyzed using the cloud-based software provided by Biolegend.

[3] = 18 mL scale, no DS or DP modification

For `CCCCCCCCCCCCCCCCCCCCCCOC[C@@H](O)COP(=O)(O)O` [Compound 2, 1-docosyl-sn-glycerol-3-phosphate], the “Particulate Size D10” value ([1]; 3 mL scale) was 6.83 μm, the “Particulate Size D50” value ([1]; 3 mL scale) was 13.8 μm and the “Particulate Size D90” value ([1]; 3 mL scale) was 27.5 μm. For the same molecule, the “Particulate Size D10” value ([1]; 12 mL scale) was 12.0 μm, the “Particulate Size D50” value ([1]; 12 mL scale) was 25.0 μm and the “Particulate Size D90” value ([1]; 12 mL scale) was 51.7 μm. For the same molecule, the average size ([1]; 12 or 18 mL scale) was 26-27 μm, the “Particulate Size D10” value [1, 3] was 12.9 μm and the “Particulate Size D50” value [1, 3] was 26.7 μm. The “Particulate Size D90” value [1, 3] was 56.0 μm, the “percentage of CD83+ cells” value (human moDC; 2.85 μM R848 and/or 82.5 μM DGP, overnight, FIG. 24A) was “increased CD83 expression, but increase was not found to be statistically significant” and the “CD86 MFI” value (human moDC; FIG. 25B) was “significant increases in CD86 expression as compared to unstimulated cells”. For the same molecule, the “cytokine and chemokine release in the serum” value [2] was “unable to induce any cytokine or chemokine release in the serum at any timepoint”.
